Measured values reported in patent US7232837B2, “Stereoisomers with high affinity for adrenergic receptors” (McNeil-PPC, Inc., priority 1999, dated 2007).

Assays:
Dog = assay: Dosage which raised mean arterial pressure 10%, dog; type: in vivo
Rat = assay: Dosage which raised mean arterial pressure 10%, rat; type: in vivo
[1] = test system: New Zealand white rabbits; assay: Intraocular pressure (IOP) after topical application to the rabbit eye; type: in vivo; conditions: mean ± S.E.
Protocol: These diastereomers were administered topically as either 1% or 2% solutions in buffered saline. Pupillary diameter and IOP were measured in all animals over a six hour time period during the day to minimize diurnal variations in IOP and pupil diameter.
The experiments were performed on adult male New Zealand white rabbits weighing 3.0–6.0 kg. All rabbits were caged individually and maintained on a 12 hr/12 hr light/dark schedule with free access to food and water. All animal procedures were in conformity with the ARVO Resolution on the Use and Care of Animals in Research. All treated rabbits had served as controls by having received a saline treatment on a different day.
Only one eye received drug treatment. The contralateral eye served as a control. Saline (or PBS) and drug treated rabbits were treated and observed simultaneously. A single dose was given at time zero and IOP and pupil diameter measured at −1.0, −0.5, 0.5, 1, 3 and 5 hrs post-treatment.
IOP measurements were recorded with an Alcon Applanation Pneumotonograph (Surgical Products Division, Alcon Laboratories, Inc., Ft. Worth, Tex.) in rabbits placed in Lucite restraining cages. Initial topical application of a two drop 0.5% proparacaine HCl (Ophthetic®, Allergan Pharmaceuticals, Inc.) was performed on each rabbit.
Mean and Standard Error values were used to construct time-response and dose-response curves for the treated and contralateral eye of research rabbits. The data were analyzed statistically by an analysis of variance and a Bonferoni's test for significance. P<0.05 was the accepted level of significance.

Swiss-Webster mice [2] = assay: Locomotor stimulant and depressant effects in mice; conditions: i.p.
Protocol: Male Swiss-Webster mice (HSD ND4, Harlan Sprague Dawley, Houston, Tex.) aged 2–3 months were used in these studies. Each dose group consisted of 8 mice. The mice were housed 2 to 4 per cage in 30.4×22.9×15.2 cm clear polycarbonate cages with food and water available ad libitum for at least one week prior to locomotor activity testing. The colony was maintained at 23±1° C., on a normal light-dark cycle beginning at 0700 hr. All testing took place during the light portion of the light-dark cycle.
Horizontal (forward movement) locomotor activity was measured using a standardized, optical activity monitoring system [Model KXYZCM (16), Omnitech Electronics, Columbus, Ohio]. Activity was monitored in forty 40.5×40.5×30.5 cm clear acrylic chambers that where housed in sets of two within larger sound-attenuating chambers. A panel of 16 infrared beams and corresponding photodetectors were spaced 2 cm apart along the sides and 2.4 cm above the floor of each activity chamber. A 7.5-W incandescent light above each chamber provided dim illumination via a rheostat set to 20% of full scale. Fans provided an 80-dB ambient noise level within the chamber.
Triprolidine HCl was obtained from Research Biochemicals International, (Natick, Mass.).
Locomotor stimulant effects. […] (+)-Amphetamine was used as a positive control. The total horizontal distance traversed (cm) was recorded at 10 minute intervals for a 2-hour session. Separate groups of 8 mice were assigned to each dose or saline group, and dose-effect testing continued for each compound until maximal stimulant or depressant effects could be estimated. A separate control group was tested along with each compound.
Using TableCurve 2D v2.03 (Jandel Scientific), the mean average total distance traversed (cm/10 min) for that period was fit to a 3-parameter logistic peak function of log10 dose (with the constant set to the mean of the saline group), and the maximum effect estimated from the resulting curve. The […] (dose producing ½ maximal stimulant activity) was estimated from a linear regression against log10 dose of the ascending portion of the dose-effect curve. The stimulant efficacy was the peak effect of the compound (cm/10 min) as estimated from the logistic peak function, minus the mean control distance traveled (cm/10 min), and was expressed for each stimulant compound as a ratio to the stimulant efficacy determined for (+)-amphetamine.
The mean average total distance traversed (cm/10 min) for that period were fit to a linear function of log10 dose of the descending portion of the dose-effect curve. […] Efficacy was the ratio of maximal depressant effect to maximum possible depression for each compound (mean average total distance of the control group minus the lowest mean total distance, expressed as a ratio to the control group total distance).
(§1) Statistical analysis. Time course data for each compound were considered in 2-way analyses of variance with dose as a between-group and time as a within-group factor. The dose-effect data were considered in 1-way analyses of variance, and planned individual comparisons were conduced between each dose and the saline control group. Interaction studies were considered in 2-way analyses of variance, with Pretreatment and Test dose as the factors.

Swiss-Webster mice [3] = assay: H1 receptor antagonist (triprolidine) interaction study, locomotor activity in mice; conditions: mice pretreated with triprolidine 20 min before the test compound
Protocol: H1 receptor antagonist interaction studies. […] The mice were immediately placed in the activity testing chamber for a 2-h session. Doses of the test compound were selected from the ascending or descending time of the dose-effect curve determined from the compound-alone studies. Eight mice were tested for each triprolidine/test compound combination.
as §1

**Q.** How did the “Dosage of Enantiomer which raised mean arterial pressure 10%, Dog” value (Dog) turn out when `CNC[C@H](O)c1cccc(O)c1` [(−)-Phenylephrine, (−)-phenylephrine] was run?
**A.** 10 µg/kg

**Q.** What about the “Dosage of Enantiomer which raised mean arterial pressure 10%, Rat” value (Rat) of the same compound?
**A.** 3 to 5 µg

**Q.** What about the IOP ([1]; 1% topical, drug treated eye (T), 0.5 hr) of the same compound?
**A.** 24 ± 0.6 mmHg

**Q.** And the IOP ([1]; 1% topical, drug treated eye (T), 1 hr)?
**A.** 24 ± 1.0 mmHg

**Q.** What about the IOP ([1]; 1% topical, drug treated eye (T), 3 hr) of the same compound?
**A.** 23 ± 1.5 mmHg

**Q.** And the IOP ([1]; 1% topical, drug treated eye (T), 5 hr)?
**A.** 21 ± 1.9 mmHg

**Q.** And the IOP ([1]; 1% topical, drug treated eye (T), −0.5 hr (pre-treatment))?
**A.** 16 ± 1.5 mmHg

**Q.** And the IOP ([1]; 1% topical, drug treated eye (T), −1 hr (pre-treatment))?
**A.** 20 ± 1.6 mmHg

**Q.** What about the IOP ([1]; 1% topical, untreated contralateral eye (U), 0.5 hr) of the same compound?
**A.** 18 ± 1.6 mmHg

**Q.** What about the IOP ([1]; 1% topical, untreated contralateral eye (U), 1 hr) of the same compound?
**A.** 19 ± 1.3 mmHg

**Q.** What about the IOP ([1]; 1% topical, untreated contralateral eye (U), 3 hr) of the same compound?
**A.** 20 ± 1.9 mmHg

**Q.** And the IOP ([1]; 1% topical, untreated contralateral eye (U), 5 hr)?
**A.** 19 ± 1.7 mmHg

**Q.** And the IOP ([1]; 1% topical, untreated contralateral eye (U), −0.5 hr (pre-treatment))?
**A.** 15 ± 2.1 mmHg

**Q.** And the IOP ([1]; 1% topical, untreated contralateral eye (U), −1 hr (pre-treatment))?
**A.** 16 ± 1.0 mmHg

**Q.** What about the IOP ([1]; 2% topical, drug treated eye (T), 0.5 hr) of the same compound?
**A.** 12 ± 0.8 mmHg

**Q.** What about the IOP ([1]; 2% topical, drug treated eye (T), 1 hr) of the same compound?
**A.** 14 ± 2.0 mmHg

**Q.** And the IOP ([1]; 2% topical, drug treated eye (T), 3 hr)?
**A.** 16 ± 0.8 mmHg

**Q.** What about the IOP ([1]; 2% topical, drug treated eye (T), 5 hr) of the same compound?
**A.** 14 ± 1.3 mmHg

**Q.** And the IOP ([1]; 2% topical, drug treated eye (T), −0.5 hr (pre-treatment))?
**A.** 15 ± 1.5 mmHg

**Q.** What about the IOP ([1]; 2% topical, drug treated eye (T), −1 hr (pre-treatment)) of the same compound?
**A.** 18 ± 1.6 mmHg

**Q.** What about the IOP ([1]; 2% topical, untreated contralateral eye (U), 0.5 hr) of the same compound?
**A.** 20 ± 2.0 mmHg

**Q.** What about the IOP ([1]; 2% topical, untreated contralateral eye (U), 1 hr) of the same compound?
**A.** 20 ± 2.4 mmHg

**Q.** What about the IOP ([1]; 2% topical, untreated contralateral eye (U), 3 hr) of the same compound?
**A.** 14 ± 1.7 mmHg

**Q.** What about the IOP ([1]; 2% topical, untreated contralateral eye (U), 5 hr) of the same compound?
**A.** 14 ± 2.0 mmHg

**Q.** And the IOP ([1]; 2% topical, untreated contralateral eye (U), −0.5 hr (pre-treatment))?
**A.** 17 ± 1.9 mmHg

**Q.** And the IOP ([1]; 2% topical, untreated contralateral eye (U), −1 hr (pre-treatment))?
**A.** 17 ± 1.9 mmHg

**Q.** What about the “Depression Time: 30-min period following injection in which the maximal depression occurred” value (Swiss-Webster mice [2]) of the same compound?
**A.** 0 to 30 min

**Q.** What about the “Stimulation Time: 30-min period following injection in which the maximal stimulant effect occurred” value (Swiss-Webster mice [2]) of the same compound?
**A.** 60 to 90 min

**Q.** What about the “locomotor depressant effects, time course (result in words)” value (Swiss-Webster mice [2]) of the same compound?
**A.** dose-dependent locomotor depression within 10 to 20 minutes following injection

**Q.** And the “Depression Potency: dose resulting in ½ the maximal depressant effect (ID50)” value (Swiss-Webster mice [2]; — denotes absence of significant effect)?
**A.** 2.3 mg/kg

**Q.** What about the “effect of triprolidine pretreatment on stimulant or depressant effects” value (Swiss-Webster mice [3]) of the same compound?
**A.** failed to show significant modification of stimulant or depressant effects
